From patent US6001882A (priority 1997, dated 1999)
pIC50: −log10 of the molar value. “And” between values parts separate entries of the source, which are not always exact repeats. Equal entries are not always repeated. Where two headings read alike, the source gives them in different places.

Tests used:
[1] = system: normal PBMC; test: Lymphocyte proliferation (3H-TdR incorporation), ConA-stimulated PBMC from normal human subject; format: cell-based; conditions: for pIC50: read-out: IC50 of ConA-induced cell proliferation; for IC100: 72 h, read-out: concentration at which proliferation was completely inhibited
Source text: (§1) In two of the types of lymphocytes, the mitogen, ConA, was used to induce proliferation, as described (Fox et al., 1993, Cell. Immunol. 150:45-58). The third type of lymphocytes used in this example proliferated actively in vitro without the need for mitogenic stimulation. The three types of lymphocytes which were used in this example were: PBMC obtained from a normal human subject and stimulated with ConA; PBMC, including malignant CD4+ T-lymphocytes, obtained from a human subject having CTCL and stimulated with ConA; and PBMC obtained from a normal human subject, which PBMC were exposed to Epstein-Barr virus (EBV) after being obtained from the subject, to produce transformed lymphocytes. It is known that EBV-transformed B-lymphocytes proliferate actively in vitro (Polack, 1996, Proc. Natl. Acad. Sci. U.S.A. 93:10411-10416; Longnecker, 1994, Leukemia 8:546-550).
(§2) Peripheral blood mononuclear cells (PBMC) were obtained by separating them from whole blood, using Ficoll-Paque separation techniques and media (Boyum, 1964, Nature 793-794). After they were obtained, PBMC were resuspended in RPMI 1640 medium, which comprised 10% (v/v) fetal bovine serum (GIBCO, Grand Island, N.Y.), and were distributed into the wells of 96-well microtiter plates. PBMC transformed using EBV were made as described (Neitzel, 1986, Hum. Gen. 73:320-326)
(§3) This stock solution stored at 4° C. in the dark. A stock solution comprising 462.5 μM 8-methoxypsoralen (8-MOP) was prepared in 2% (v/v) benzyl alcohol. 8-MOP was obtained from Sigma (St. Louis, Mo.).
(§4) In cultures of transformed leukocytes in which 8-MOP was used, the concentrations of 8-MOP which were used were 92.5 μM, 18.5 μM, 3.7 μM, 0.74 μM, 0.15 μM, and 0.030 μM. Thereafter, ConA was then added to preselected wells to achieve a final concentration of 10 μg/ml of ConA in those wells.
(§5) Following preparation of the microtiter culture plates, preselected plates were illuminated with fluorescent visible light for 10-30 minutes, using four fluorescent bulbs (type F15T8CW, TFC Inc., Taiwan) spaced at a distance of 9 cm above the plates. Other preselected plates were illuminated with 0.5-2 Joules per square centimeter UV-A light using a UV-A light box containing 8 UVAR 06-91 bulbs. Still other preselected plates were not exposed to light. The covers of plates which were exposed to light were left in place during illumination.
(§6) Following illumination, plates which had been illuminated were placed into a dark incubator which was maintained at 37° C. Non-illuminated plates were placed into the incubator immediately after preparation. All plates were incubated for seventy-two hours. During the final eighteen hours of incubation, tritiated thymidine (^3 H-TdR) was added to each well of each plate. No extraordinary precautions were used to prevent light exposure during the addition of ^3 H-TdR.
(§7) Lymphocyte proliferation was assessed by measuring the extent of incorporation of ^3 H-TdR into newly synthesized DNA within the cells at the end of the seventy-two hour incubation period, as described (Fox, 1993, Cell. Immunol. 150:45-58).

[2] = system: neoplastic ("CTL") PBMC; test: Lymphocyte proliferation (3H-TdR incorporation), ConA-stimulated neoplastic PBMC from subject having CTCL; format: cell-based, human; conditions: for pIC50: read-out: IC50 of ConA-induced cell proliferation
Source text: as §1, §2, §3, §4, §5, §6, §7

[3] = system: PBMC obtained from a patient having CTCL; test: Induction of apoptosis of CTCL PBMC, TUNEL assay (Example 2); format: cell-based, human; conditions: for percentage of PBMC which underwent apoptosis: 10 μM hypericin or 100 ng/ml 8-MOP
Experimental: The processing of neoplastic leukocytes, the media and stock solutions used, and the procedures which were used were the same as those presented in Example 1, except as described below.
Cultures were illuminated using fluorescent light for 20 minutes, illuminated with 2 J/cm^2 UV-A light or were not illuminated. After 24 and 48 hours, apoptosis was measured using a TUNEL assay, as described (Sgonc, 1994 Trends Gen. 10:41-42). The TUNEL assay specifically labels free ends of internucleosomally-cleaved DNA--the hallmark of the apoptotic process.

[4] = system: malignant leukocytes; test: Flow cytometric sorting of apoptotic malignant leukocytes (dUTP-FITC incorporation); format: cell-based, human; conditions: 10 μM hypericin or 0.462 μM 8-MOP, 18 h
Source text: FIG. 8, comprising Panels A-G, is a series of graphs which represent distributions of cell types within various cultures, as assessed by flow cytometric cell sorting, using incorporation of dUTP-FITC into fragmented DNA as a selection criterion. Malignant leukocytes which have not been induced to undergo apoptosis are represented as points which are located below an imaginary horizontal line located at approximately 2×10^1 on the vertical axis of each graph. Malignant leukocytes which have been induced to undergo apoptosis are represented as points which are located above an imaginary horizontal line located at approximately 3×10^1 on the vertical axis of each graph. […] The graph in Panel B corresponds to cells which were treated with hypericin and which were not illuminated. The graph in Panel C corresponds to cells which were treated with hypericin and which were illuminated using visible light. The graph in Panel D corresponds to cells which were treated with hypericin and which were illuminated using UV-A light. The graph in Panel E corresponds to cells which were treated with 8-MOP and which were not illuminated. The graph in Panel F corresponds to cells which were treated with 8-MOP and which were illuminated using visible light. The graph in Panel G corresponds to cells which were treated with 8-MOP and which were illuminated using UV-A light.
Hypericin-treated malignant leukocytes and 8-MOP-treated leukocytes were photoactivated using visible light for 20 minutes or 2 J/cm^2 UV-A light, or were not photoactivated, as described in Example 1. 18 hours after photoactivation, or 18 hours after preparation of the cultures which were not photoactivated, leukocyte cultures were harvested, and apoptotic cells were separated from non-apoptotic cells using a FACScan flow cytometer (Becton Dickinson Immunocytometry Systems, San Jose, Calif.). Apoptotic cells were distinguished from non-apoptotic cells based on increased dUTP-FITC incorporation.

[5] = system: PBMC obtained from a subject having CTCL; test: Induction of apoptosis in CTCL PBMC, TUNEL assay (Example 3); format: cell-based, human; conditions: for percentage of PBMC which underwent apoptosis: CTCL, 18 h; for capability of inducing apoptosis: malignant leukocytes
[6] = Homo sapiens, PBMC, 10 min, visible light, 10 min
[7] = Homo sapiens, PBMC, 20 min, visible light, 20 min
[8] = Homo sapiens, PBMC, 0.5 h, visible light, 30 min
[9] = Homo sapiens, PBMC, UV-A, 0.5 J/sc
[10] = Homo sapiens, PBMC, UV-A, 1 J/sc
[11] = Homo sapiens, PBMC, not illuminated, benzyl alcohol vehicle itself inhibitory at highest concentrations

Compound	pIC50 [1, 6]	pIC50 [1, 7]	pIC50 [1, 9]	pIC50 [1, 10]	pIC50 [1, 11]	pIC50 [2, 6]	pIC50 [2, 7]	pIC50 [2, 9]	pIC50 [2, 10]	percentage of PBMC which underwent apoptosis ([3]; 24 h, UV-A 2 J/cm^2)	percentage of PBMC which underwent apoptosis ([3]; 24 h, no light)	percentage of PBMC which underwent apoptosis ([3]; 24 h, visible light 20 min)	percentage of PBMC which underwent apoptosis ([3]; 48 h, UV-A 2 J/cm^2)	percentage of PBMC which underwent apoptosis ([3]; 48 h, no light)	percentage of PBMC which underwent apoptosis ([3]; 48 h, visible light 20 min)	potency as inducer of apoptosis, hypericin vs 8-MOP ([3]; UV-A light)	induction of apoptosis (flow cytometry, FIG. 8) ([4]; UV-A 2 J/cm^2)	induction of apoptosis (flow cytometry, FIG. 8) ([4]; no photoactivation)	induction of apoptosis (flow cytometry, FIG. 8) ([4]; visible light 20 min)	percentage of PBMC which underwent apoptosis ([5]; 1 μM, UV-A 2 J/cm^2)	other results
COc1c2occc2cc2ccc(=O)oc12 [8-MOP, 8-methoxypsoralen]	4.47	4.47	6.02	6.77	4.47	5.44	5.44	6.13	6.70	87 percentage	11.5 percentage	32 percentage	94 percentage	21 percentage	48 percentage	approximately equally potent inducers of apoptosis of malignant leukocytes	induced apoptosis in most cells	neither hypericin nor 8-MOP induced significant apoptosis	induced apoptosis in only a limited number of cells	44.0 percentage	pIC50 [1, 8]: 4.47; pIC50 ([1]; Homo sapiens, PBMC, UV-A, 2 J/sc): 6.82; pIC50 [2, 8]: 5.51; pIC50 [2, 11]: 5.36; percentage of PBMC which underwent apoptosis ([5]; 1 μM, no light): 2.5 percentage; percentage of PBMC which underwent apoptosis ([5]; 1 μM, visible light 20 min): 11.0 percentage; percentage of PBMC which underwent apoptosis ([5]; 10 μM, UV-A 2 J/cm^2): 74.3 percentage; percentage of PBMC which underwent apoptosis ([5]; 10 μM, no light): 2.4 percentage; percentage of PBMC which underwent apoptosis ([5]; 10 μM, visible light 20 min): 12.2 percentage; selectivity of apoptosis induction, malignant vs normal leukocytes ([5]; UV-A light): the magnitude of the selective effect was much smaller; capability of inducing apoptosis ([5]; UV-A light): capable of inducing apoptosis in malignant leukocytes; capability of inducing apoptosis ([5]; visible light): not 8-MOP, is capable of inducing apoptosis in both normal and malignant leukocytes
Cc1cc(O)c2c(=O)c3c(O)cc(O)c4c5c(O)cc(O)c6c(=O)c7c(O)cc(C)c8c1c2c(c34)c(c78)c65 [hypericin, 1,3,4,6,8,13-Hexahydroxy-10,11,dimethyl-phenanthro[1,10,9,8,-opqra]perylene-7,14-dione]	6.12	6.96	5.34	5.68	4.66	6.40	6.47	5.74	6.24	88 percentage	11.5 percentage	97 percentage	96 percentage	18 percentage	91 percentage	approximately equally potent inducers of apoptosis of malignant leukocytes	induced apoptosis in most cells	neither hypericin nor 8-MOP induced significant apoptosis	induced apoptosis in nearly all cells	26.1 percentage	IC100 ([1]; Homo sapiens, PBMC, visible light, 10 min): 3.2 µM; IC100 ([1]; Homo sapiens, PBMC, visible light, 20 min): 0.64 µM; inhibition of mitogen-induced proliferation ([1]; normal PBMC): inhibits mitogen-induced proliferation of PBMC; pIC50 ([1]; not illuminated, benzyl alcohol vehicle itself inhibitory at highest concentrations): 4.63; effect of 30 min illumination on inhibition of proliferation ([1]; visible light 30 min, relative to shorter illumination): did not significantly increase inhibition of cell proliferation; pIC50 ([1]; visible light, 10 min): 6.17 and 6.10; pIC50 ([1]; visible light, 20 min): 6.74 and 7.00; IC100 ([2]; Homo sapiens, PBMC, 72 h, visible light, 20 min, read-out: concentration at which proliferation was completely inhibited): 3.2 µM; inhibition of mitogen-induced proliferation ([2]; malignant PBMC): inhibits mitogen-induced proliferation of PBMC; pIC50 ([2]; visible light, 20 min): 6.28 and 6.52; potency as inducer of apoptosis, hypericin vs 8-MOP ([3]; visible light): much more potent inducer of apoptosis of malignant leukocytes than 8-MOP; percentage of PBMC which underwent apoptosis ([5]; 1 μM, no light): 2.6 percentage; percentage of PBMC which underwent apoptosis ([5]; 1 μM, visible light 20 min): 17.2 percentage; percentage of PBMC which underwent apoptosis ([5]; 10 μM, UV-A 2 J/cm^2): 94.4 percentage; percentage of PBMC which underwent apoptosis ([5]; 10 μM, no light): 2.8 percentage; percentage of PBMC which underwent apoptosis ([5]; 10 μM, visible light 20 min): 94.3 percentage; capability of inducing apoptosis ([5]; UV-A light): capable of inducing apoptosis in malignant leukocytes; capability of inducing apoptosis ([5]; visible light): capable of inducing apoptosis in both normal and malignant leukocytes
